According to patent publication US20100105655A1, “NOVEL COMPOUNDS 515” (ASTRAZENECA AB, priority 2008, published 2010):

Molecular target: T1, IGFR kinase (Homo sapiens, UniProt P08069)
T1 construct: purchased Millipore
Assay: Enzyme assay (c), IGFR kinase, Caliper LabChip
Assay type: biochemical
Details: 30 nM IGFR kinase, 6 uM ATP, 3 uM peptide mix; read-out: IGFR IC50

T1 sequence (P08069 31-1367): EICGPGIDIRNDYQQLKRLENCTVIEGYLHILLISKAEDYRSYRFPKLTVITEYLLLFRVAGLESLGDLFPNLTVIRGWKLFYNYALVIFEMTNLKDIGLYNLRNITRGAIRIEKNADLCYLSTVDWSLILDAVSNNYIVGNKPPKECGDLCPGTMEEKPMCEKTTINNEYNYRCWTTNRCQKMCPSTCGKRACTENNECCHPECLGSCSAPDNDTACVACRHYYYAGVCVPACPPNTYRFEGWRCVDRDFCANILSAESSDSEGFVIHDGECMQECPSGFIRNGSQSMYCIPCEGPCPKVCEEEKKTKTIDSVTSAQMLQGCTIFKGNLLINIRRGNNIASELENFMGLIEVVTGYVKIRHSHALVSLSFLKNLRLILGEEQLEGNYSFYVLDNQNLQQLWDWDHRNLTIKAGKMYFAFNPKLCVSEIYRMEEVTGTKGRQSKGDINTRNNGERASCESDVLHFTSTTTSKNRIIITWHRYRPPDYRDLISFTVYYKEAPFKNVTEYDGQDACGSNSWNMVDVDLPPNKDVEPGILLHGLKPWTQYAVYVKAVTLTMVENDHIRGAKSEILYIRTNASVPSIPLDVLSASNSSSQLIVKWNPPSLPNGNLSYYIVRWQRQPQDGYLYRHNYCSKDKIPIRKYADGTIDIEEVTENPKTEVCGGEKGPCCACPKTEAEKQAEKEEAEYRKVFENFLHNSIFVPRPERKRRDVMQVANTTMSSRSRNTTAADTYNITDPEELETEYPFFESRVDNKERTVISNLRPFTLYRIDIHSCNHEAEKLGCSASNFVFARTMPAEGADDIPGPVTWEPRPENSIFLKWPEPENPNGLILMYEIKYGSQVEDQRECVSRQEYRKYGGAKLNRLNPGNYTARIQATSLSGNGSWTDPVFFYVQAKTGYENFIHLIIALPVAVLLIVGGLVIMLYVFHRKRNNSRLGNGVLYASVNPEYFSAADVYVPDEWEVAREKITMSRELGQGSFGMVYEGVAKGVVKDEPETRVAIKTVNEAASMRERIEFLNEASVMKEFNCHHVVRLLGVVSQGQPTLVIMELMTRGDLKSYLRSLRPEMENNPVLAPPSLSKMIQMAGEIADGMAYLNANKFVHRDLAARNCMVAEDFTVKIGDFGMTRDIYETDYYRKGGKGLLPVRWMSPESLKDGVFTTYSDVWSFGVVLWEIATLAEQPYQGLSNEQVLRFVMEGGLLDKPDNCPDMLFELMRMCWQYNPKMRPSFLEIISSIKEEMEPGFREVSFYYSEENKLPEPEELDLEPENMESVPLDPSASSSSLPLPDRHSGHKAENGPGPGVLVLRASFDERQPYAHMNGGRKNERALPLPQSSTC

`COc1cc(CN2CC[C@H](O)C2)ccc1Nc1ncc(Cl)c(-c2cnc3ccccn23)n1` [Example 20, (3S)-1-[[4-[(5-chloro-4-imidazo[1,2-a]pyridin-3-yl-pyrimidin-2-yl)amino]-3-methoxy-phenyl]methyl]pyrrolidin-3-ol] and `COc1cc(CN2CCCN(C)CC2)ccc1Nc1ncc(Cl)c(-c2cnc3ccccn23)n1` [Example 21.11, 5-chloro-4-imidazo[1,2-a]pyridin-3-yl-N-[2-methoxy-4-[(4-methyl-1,4-diazepan-1-yl)methyl]phenyl]pyrimidin-2-amine] are within 1.5-fold of each other in IC50: 0.019 µM for the first, 0.023 µM for the second.

Compared with `COc1cc(O[C@H]2CCN(C(=O)C(C)O)C2)ccc1Nc1ncc(Cl)c(-c2cnc3ccccn23)n1` (mixture of isomers) [Example 15, 1-[(3S)-3-[4-[(5-chloro-4-imidazo[1,2-a]pyridin-3-yl-pyrimidin-2-yl)amino]-3-methoxy-phenoxy]pyrrolidin-1-yl]-2-hydroxy-propan-1-one], `COc1cc(O[C@H]2CCN(C(=O)[C@H](C)O)C2)ccc1Nc1ncc(Cl)c(-c2cnc3ccccn23)n1` [Example 15A, (2S)-1-[(3S)-3-[4-[(5-chloro-4-imidazo[1,2-a]pyridin-3-yl-pyrimidin-2-yl)amino]-3-methoxy-phenoxy]pyrrolidin-1-yl]-2-hydroxy-propan-1-one] is 3-fold higher in IC50: 0.012 µM for the first, 0.036 µM for the second. The first is the more potent here.

`COc1cc(N2CCN(C(=O)CNC(C)=O)CC2)ccc1Nc1ncc(Cl)c(-c2cnc3ccccn23)n1` [Example 25.2, N-[2-[4-[4-[(5-chloro-4-imidazo[1,2-a]pyridin-3-yl-pyrimidin-2-yl)amino]-3-methoxy-phenyl]piperazin-1-yl]-2-oxo-ethyl]acetamide] and `CNC(=O)CN1CCN(c2ccc(Nc3ncc(Cl)c(-c4cnc5ccccn45)n3)c(OC)c2)CC1` [Example 66, 2-[4-[4-[(5-chloro-4-imidazo[1,2-a]pyridin-3-yl-pyrimidin-2-yl)amino]-3-methoxy-phenyl]piperazin-1-yl]-N-methyl-acetamide] are within 1.5-fold of each other in IC50: 0.013 µM for the first, 0.015 µM for the second.

Compared with `COc1cc(N2CC[C@@H](NC(C)=O)C2)ccc1Nc1ncc(Cl)c(-c2cnc3ccccn23)n1` [Example 3.23, N-((3R)-1-(4-(5-chloro-4-(imidazo[1,2-a]pyridin-3-yl)pyrimidin-2-ylamino)-3-methoxyphenyl)pyrrolidin-3-yl)acetamide], `COc1ccc(N2CC[C@@H](N(C)C)C2)cc1Nc1ncc(Cl)c(-c2cnc3ccccn23)n1` [Example 3.13, 5-chloro-N-[5-[(3R)-3-dimethylaminopyrrolidin-1-yl]-2-methoxy-phenyl]-4-imidazo[1,2-a]pyridin-3-yl-pyrimidin-2-amine] is 3.3-fold higher in IC50: 0.018 µM for the first, 0.06 µM for the second. The first is the more potent here.

First: COc1cc(N2CCCOCC2)ccc1Nc1ncc(F)c(-c2cnc3ccccn23)n1 [Example 84, 5-fluoro-4-imidazo[1,2-a]pyridin-3-yl-N-[2-methoxy-4-(1,4-oxazepan-4-yl)phenyl]pyrimidin-2-amine]
Second: COc1cc(N2CC[C@@H](O)C2)ccc1Nc1ncc(F)c(-c2cnc3ccccn23)n1 [Example 85, (3R)-1-[4-[(5-fluoro-4-imidazo[1,2-a]pyridin-3-yl-pyrimidin-2-yl)amino]-3-methoxy-phenyl]pyrrolidin-3-ol]
The IC50 of the first is 5.3-fold higher: 0.179 µM for the first, 0.034 µM for the second.

First: COc1cc(N2CCN(C(=O)[C@@H](C)O)CC2)ccc1Nc1ncc(Cl)c(-c2cnn3ccccc23)n1 [Example 131, (2R)-1-[4-[4-[(5-chloro-4-pyrazolo[1,5-a]pyridin-3-yl-pyrimidin-2-yl)amino]-3-methoxy-phenyl]piperazin-1-yl]-2-hydroxy-propan-1-one]
Second: COc1cc(N2CCN(C(=O)[C@@H](C)N)CC2)ccc1Nc1ncc(C)c(-c2cnn3ccccc23)n1 [Example 235, (2R)-2-amino-1-[4-[3-methoxy-4-[(5-methyl-4-pyrazolo[1,5-a]pyridin-3-yl-pyrimidin-2-yl)amino]phenyl]piperazin-1-yl]propan-1-one]
The IC50 of the first is 4.3-fold lower: 0.003 µM for the first, 0.013 µM for the second. The first is the more potent here.

Compared with `COc1cc(C2CCNCC2)ccc1Nc1ncc(F)c(-c2cnc3ccccn23)n1` [Example 86, 5-fluoro-4-imidazo[1,2-a]pyridin-3-yl-N-[2-methoxy-4-(4-piperidyl)phenyl]pyrimidin-2-amine], `COc1cc(C2CCN(C(C)=O)CC2)ccc1Nc1ncc(F)c(-c2cnc3ccccn23)n1` [Example 78, 1-[4-[4-[(5-fluoro-4-imidazo[1,2-a]pyridin-3-yl-pyrimidin-2-yl)amino]-3-methoxy-phenyl]-1-piperidyl]ethanone] is 4.5-fold higher in IC50: 0.012 µM for the first, 0.054 µM for the second.

Going from `COc1cc(C2CCN(C(=O)[C@@H](C)O)CC2)ccc1Nc1ncc(C)c(-c2cnn3ccccc23)n1` [Example 164, (2R)-2-hydroxy-1-[4-[3-methoxy-4-[(5-methyl-4-pyrazolo[1,5-a]pyridin-3-yl-pyrimidin-2-yl)amino]phenyl]-1-piperidyl]propan-1-one] to `CNCC(=O)N1CCC(c2ccc(Nc3ncc(Cl)c(-c4cnc5c(F)cccn45)n3)c(OC)c2)CC1` [Example 182, 1-[4-[4-[[5-chloro-4-(8-fluoroimidazo[1,2-a]pyridin-3-yl)pyrimidin-2-yl]amino]-3-methoxy-phenyl]-1-piperidyl]-2-(methylamino)ethanone], the IC50 falls from 0.015 µM to 0.001 µM (15-fold). The second is the more potent here.

`CC(=O)N1CCN(c2ccc(Nc3ncc(Cl)c(-c4cnc5ccccn45)n3)c(C)c2)CC1` [Example 3.30, 1-[4-[4-[(5-chloro-4-imidazo[1,2-a]pyridin-3-yl-pyrimidin-2-yl)amino]-3-methyl-phenyl]piperazin-1-yl]ethanone] and `CC(=O)N1CCN(c2cc(C)c(Nc3ncc(Cl)c(-c4cnc5ccccn45)n3)cc2F)CC1` [Example 3.33, 1-[4-[4-[(5-chloro-4-imidazo[1,2-a]pyridin-3-yl-pyrimidin-2-yl)amino]-2-fluoro-5-methyl-phenyl]piperazin-1-yl]ethanone] are within 1.5-fold of each other in IC50: 0.012 µM for the first, 0.016 µM for the second.

Compared with `COc1cc(N2CCN(C[C@H](C)O)CC2)ccc1Nc1ncc(C)c(-c2cnc3ccccn23)n1` [Example 104, (2S)-1-[4-[4-[(4-imidazo[1,2-a]pyridin-3-yl-5-methyl-pyrimidin-2-yl)amino]-3-methoxy-phenyl]piperazin-1-yl]propan-2-ol], `COc1cc(N2CCN(C[C@H](C)O)CC2)ccc1Nc1ncc(Cl)c(-c2cnc3ccccn23)n1` [Example 50, (2S)-1-[4-[4-[(5-chloro-4-imidazo[1,2-a]pyridin-3-yl-pyrimidin-2-yl)amino]-3-methoxy-phenyl]piperazin-1-yl]propan-2-ol] is 3.6-fold lower in IC50: 0.029 µM for the first, 0.008 µM for the second. The second is the more potent here.

Compared with `COc1ccc(N2CCC(OC)CC2)cc1Nc1ncc(F)c(-c2cnc3ccccn23)n1` [Example 77, 5-fluoro-4-imidazo[1,2-a]pyridin-3-yl-N-[2-methoxy-5-(4-methoxy-1-piperidyl)phenyl]pyrimidin-2-amine], `COc1cc(N2CCN(C[C@H](C)O)CC2)ccc1Nc1ncc(F)c(-c2cnc3ccccn23)n1` [Example 89, (2S)-1-[4-[4-[(5-fluoro-4-imidazo[1,2-a]pyridin-3-yl-pyrimidin-2-yl)amino]-3-methoxy-phenyl]piperazin-1-yl]propan-2-ol] is 5.4-fold lower in IC50: 0.184 µM for the first, 0.034 µM for the second. The second is the more potent here.

Going from `COc1cc(C2CCNC(C)C2)ccc1Nc1ncc(Cl)c(-c2cnc3ccccn23)n1` (centres unmarked) [Example 59.2, 5-chloro-4-imidazo[1,2-a]pyridin-3-yl-N-[2-methoxy-4-(2-methyl-4-piperidyl)phenyl]pyrimidin-2-amine] to `COc1cc(OC[C@H]2CCCN2)ccc1Nc1ncc(Cl)c(-c2cnc3ccccn23)n1` [Example 6.1, 5-chloro-4-imidazo[1,2-a]pyridin-3-yl-N-[2-methoxy-4-[[(2R)-pyrrolidin-2-yl]methoxy]phenyl]pyrimidin-2-amine], the IC50 rises from 0.007 µM to 0.012 µM (1.7-fold). The first is the more potent here.

`COc1cc(N2CCN(C(=O)[C@@H]3CCCN3)CC2)ccc1Nc1ncc(Cl)c(-c2cnc3ccccn23)n1` [Example 23, [4-[4-[(5-chloro-4-imidazo[1,2-a]pyridin-3-yl-pyrimidin-2-yl)amino]-3-methoxy-phenyl]piperazin-1-yl]-[(2S)-pyrrolidin-2-yl]methanone] and `COc1cc(N2CCN(C(C)=O)CC2)c(C)cc1Nc1ncc(Cl)c(-c2cnc3ccccn23)n1` [Example 278, 1-[4-[4-[(5-chloro-4-imidazo[1,2-a]pyridin-3-yl-pyrimidin-2-yl)amino]-5-methoxy-2-methyl-phenyl]piperazin-1-yl]ethanone] are within 1.5-fold of each other in IC50: 0.009 µM for the first, 0.008 µM for the second.

Going from `COc1cc(N2CCNCC2)ccc1Nc1ncc(OC)c(-c2cnc3ccccn23)n1` [Example 93, 4-imidazo[1,2-a]pyridin-3-yl-5-methoxy-N-(2-methoxy-4-piperazin-1-yl-phenyl)pyrimidin-2-amine] to `COCCCNCc1ccc(Nc2ncc(Cl)c(-c3cnc4ccccn34)n2)c(OC)c1` [Example 21.9, 5-chloro-4-imidazo[1,2-a]pyridin-3-yl-N-[2-methoxy-4-[(3-methoxypropylamino)methyl]phenyl]pyrimidin-2-amine], the IC50 falls from 0.027 µM to 0.017 µM (1.6-fold).

Compared with `COc1cc(N2CCN(C(C)=O)CC2)ccc1Nc1ncc(Cl)c(-c2cnc3cc(CN(C)C)ccn23)n1` [Example 185, 1-[4-[4-[[5-chloro-4-[7-(dimethylaminomethyl)imidazo[1,2-a]pyridin-3-yl]pyrimidin-2-yl]amino]-3-methoxy-phenyl]piperazin-1-yl]ethanone], `COc1cc(C(C)C(=O)N2CCN(CCO)CC2)ccc1Nc1ncc(Cl)c(-c2cnc3ccccn23)n1` (centres unmarked) [Example 3.41, 2-[4-[(5-chloro-4-imidazo[1,2-a]pyridin-3-yl-pyrimidin-2-yl)amino]-3-methoxy-phenyl]-1-[4-(2-hydroxyethyl)piperazin-1-yl]propan-1-one] is 11-fold lower in IC50: 0.17 µM for the first, 0.016 µM for the second. The second is the more potent here.

Compared with `COc1ccc(OC[C@H]2CCCN2C(C)=O)cc1Nc1ncc(Cl)c(-c2cnc3ccccn23)n1` [Example 17, 1-[(2R)-2-[[3-[(5-chloro-4-imidazo[1,2-a]pyridin-3-yl-pyrimidin-2-yl)amino]-4-methoxy-phenoxy]methyl]pyrrolidin-1-yl]ethanone], `COc1cc(N(C)CCN(C)C(=O)CO)ccc1Nc1ncc(Cl)c(-c2cnc3c(F)cccn23)n1` [Example 220, N-[2-[4-[[5-chloro-4-(8-fluoroimidazo[1,2-a]pyridin-3-yl)pyrimidin-2-yl]amino]-3-methoxy-N-methyl-anilino]ethyl]-2-hydroxy-N-methyl-acetamide] is 12-fold lower in IC50: 0.058 µM for the first, 0.005 µM for the second. The second is the more potent here.
